By Ki is commonly meant the equilibrium dissociation constant of an inhibitor or competing ligand from its target.

The values that follow come from patent US8404679B2, “Pyrrolidine derivatives as NK2 receptor antagonists” (Hoffmann-La Roche Inc., priority 2008, dated 2013).

The test concerns the target T1, human NK2 receptor (Homo sapiens, UniProt P21452).
T1 construct: purchased Perkin Elmer biosignal Inc. 6110510
T1 sequence (P21452 1-398): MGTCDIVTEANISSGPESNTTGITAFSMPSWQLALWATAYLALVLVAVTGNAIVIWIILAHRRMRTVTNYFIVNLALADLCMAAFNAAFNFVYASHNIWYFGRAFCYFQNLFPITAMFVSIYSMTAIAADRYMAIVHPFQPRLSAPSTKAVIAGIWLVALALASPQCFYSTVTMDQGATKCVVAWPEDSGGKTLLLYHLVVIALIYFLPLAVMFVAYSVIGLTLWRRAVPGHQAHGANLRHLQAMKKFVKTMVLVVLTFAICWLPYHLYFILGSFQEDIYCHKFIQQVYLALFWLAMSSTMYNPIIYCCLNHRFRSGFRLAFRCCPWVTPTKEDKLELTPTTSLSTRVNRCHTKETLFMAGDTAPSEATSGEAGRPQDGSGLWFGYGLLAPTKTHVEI
The test is described as follows: [3H]SR48968 competition binding assay. The settings on record: [3H]SR48968 displacement, membranes of CHO cells stably expressing recombinant human NK2 receptor; Ki from IC50 by Cheng-Prussoff. The protocol: [^3H]SR48968 Competition Binding Assay
hNK2 receptor binding experiment were performed using [^3H]SR48968 (Catalog No. TRK398, specific activity: 27.0 Ci/mmol, Amersham, GE Healthcare UK limited, Buckinghamshire, UK) and membrane isolated from CHO cells stably expressing recombinant human NK2 receptor (product No. 6110510, Perkin Elmer biosignal Inc., Shelton, Conn., USA). After thawing, the membrane homogenates were centrifuged at 48,000×g for 10 min at 4° C., the pellets were resuspended in the 50 mM Tris-HCl, 3 mM MnCl2, 4 μg/mL Chymostatin, 0.04% BSA binding buffer at pH 7.4 to a final assay concentration of 6.5 μg protein/well. For inhibition experiments, membranes were incubated with [^3H]SR48968 at a concentration equal to KD value of radioligand and 10 concentrations of the inhibitory compound (0.0003-10 μM) (in a total reaction volume of 500 μl) for 75 min at room temperature (RT). At the end of the incubation, membranes were filtered onto unitfilter (96-well white microplate with bonded GF/C filter preincubated 1 h in 0.3% polyethylenimine, Packard BioScience, Meriden, Conn.) with a Filtermate 196 harvester (Packard BioScience) and washed 4 times with ice-cold 50 mM Tris-HCl, pH 7.4 buffer. Nonspecific binding was measured in the presence of 10 μM 1-{2-[(R)-3-(3,4-dichloro-phenyl)-1-(3,4,5-trimethoxy-benzoyl)-pyrrolidin-3-yl]-ethyl}-4-phenyl-piperidine-4-carboxylic acid amide. The radioactivity on the filter was counted (5 min) on a Packard Top-count microplate scintillation counter with quenching correction after addition of 45 μl of microscint 40 (Canberra Packard S. A., Zürich, Switzerland) and shaking for 1 h. Inhibition curves were fitted according to the Hill equation: y=100/(1+(x/IC50)^nH), where nH=slope factor using Excel-fit 4 software (Microsoft). IC50 values were derived from the inhibition curve and the affinity constant (Ki) values were calculated using the Cheng-Prussoff equation Ki=IC50/(1+[L]/KD) where [L] was the concentration of radioligand and KD was its dissociation constant at the receptor, derived from the saturation isotherm.
Consider `COc1ccc(C(=O)N(C)[C@@H]2CN(C(=O)N3CCN(S(C)(=O)=O)CC3)C[C@H]2c2ccc(Cl)c(Cl)c2)cc1F` (racemic) [Example 26, rac-N-[(3S,4R)-4-(3,4-Dichloro-phenyl)-1-(4-methanesulfonyl-piperazine-1-carbonyl)-pyrrolidin-3-yl]-3-fluoro-4-methoxy-N-methyl-benzamide], for which the Ki worked out at 9.45 nM.

With `CCc1ccc(C(=O)N(C)[C@@H]2CN(C(=O)N3CCN(S(C)(=O)=O)CC3)C[C@H]2c2ccc(Cl)c(Cl)c2)cc1` (racemic) [Example 14, rac-N-[(3S,4R)-4-(3,4-Dichloro-phenyl)-1-(4-methanesulfonyl-piperazine-1-carbonyl)-pyrrolidin-3-yl]-4-ethyl-N-methyl-benzamide], the Ki amounted to 1.17 nM.

Turning to `COc1ccc(C(=O)N(C)[C@H]2CN(C(=O)C3CCN(C(=O)OC(C)(C)C)CC3)C[C@@H]2c2ccc(Cl)cc2)cc1C(F)(F)F` (racemic) [Example 95, 4-{(3SR,4RS)-3-(4-Chloro-phenyl)-4-[(4-methoxy-3-trifluoromethyl-benzoyl)-methyl-amino]-pyrrolidine-1-carbonyl}-piperidine-1-carboxylic acid tert-butyl ester], the Ki was 2.2 nM.

With `CN(C(=O)c1ccc2occc2c1)[C@@H]1CN(C(=O)N2CCN(S(C)(=O)=O)CC2)C[C@H]1c1ccc(Cl)c(Cl)c1` (racemic) [Example 23, rac-Benzofuran-5-carboxylic acid [(3S,4R)-4-(3,4-dichloro-phenyl)-1-(4-methanesulfonyl-piperazine-1-carbonyl)-pyrrolidin-3-yl]-methyl-amide], the Ki worked out at 10.2 nM.

As to `COc1ccc(C(=O)N2C[C@@H](N(C)C(=O)c3ccc(OC)c(C(F)(F)F)c3)[C@H](c3ccc(Cl)c(Cl)c3)C2)cc1C` (racemic) [Example 55, rac-N-[(3S,4R)-4-(3,4-Dichloro-phenyl)-1-(4-methoxy-3-methyl-benzoyl)-pyrrolidin-3-yl]-4-methoxy-N-methyl-3-trifluoromethyl-benzamide], the Ki came to 2.06 nM.

With `CN(C(=O)c1ccc(OC(F)(F)F)cc1)[C@@H]1CN(C(=O)N2CCN(S(C)(=O)=O)CC2)C[C@H]1c1ccc(Cl)c(Cl)c1` (racemic) [Example 16, rac-N-[(3S,4R)-4-(3,4-Dichloro-phenyl)-1-(4-methanesulfonyl-piperazine-1-carbonyl)-pyrrolidin-3-yl]-N-methyl-4-trifluoromethoxy-benzamide], the Ki came out at 5.09 nM.

As for `CN(C(=O)c1ccc(Cl)c(C(F)(F)F)c1)[C@H]1CN(C(=O)C2CCN(CC3CC3)CC2)C[C@@H]1c1ccc(Cl)c(Cl)c1` (racemic) [Example 164, 4-Chloro-N-[(3RS,4SR)-1-(1-cyclopropylmethyl-piperidine-4-carbonyl)-4-(3,4-dichloro-phenyl)-pyrrolidin-3-yl]-N-methyl-3-trifluoromethyl-benzamide], the Ki was 0.5 nM.

Consider `CCOCc1ccc(C(=O)N(C)[C@@H]2CN(C(=O)c3ccc(C#N)cc3)C[C@H]2c2ccc(Cl)c(Cl)c2)nc1` (racemic) [Example 65, rac-5-Ethoxymethyl-pyridine-2-carboxylic acid [(3S,4R)-1-(4-cyano-benzoyl)-4-(3,4-dichloro-phenyl)-pyrrolidin-3-yl]-methyl-amide], for which the Ki was determined as 30.2 nM.

Consider `COc1ccc(C(=O)N(C)[C@@H]2CN(C(=O)c3ccc4occc4c3)C[C@H]2c2ccc(Cl)c(Cl)c2)cc1C(F)(F)F` (racemic) [Example 48, rac-N-[(3S,4R)-1-(Benzofuran-5-carbonyl)-4-(3,4-dichloro-phenyl)-pyrrolidin-3-yl]-4-methoxy-N-methyl-3-trifluoromethyl-benzamide], for which the Ki amounted to 5.36 nM.

As to `CN(C(=O)Cc1ccc(F)cc1)[C@H]1CN(C(=O)C2CCN(C(=O)C3(C)CC3)CC2)C[C@@H]1c1ccc(Cl)c(Cl)c1` [Example 118, N-{(3R,4S)-4-(3,4-Dichloro-phenyl)-1-[1-(1-methyl-cyclopropanecarbonyl)-piperidine-4-carbonyl]-pyrrolidin-3-yl}-2-(4-fluoro-phenyl)-N-methyl-acetamide], the Ki stood at 32.4 nM.

As to `COc1ccc(C(=O)N(C)[C@H]2CN(C(=O)c3ccc(C#N)cc3)C[C@@H]2c2ccc(Cl)cc2)cc1C(F)(F)F` (racemic) [Example 92, N-[(3RS,4SR)-4-(4-Chloro-phenyl)-1-(4-cyano-benzoyl)-pyrrolidin-3-yl]-4-methoxy-N-methyl-3-trifluoromethyl-benzamide], the Ki was found to be 13.9 nM.

As to `CN(C(=O)Cc1ccc(F)cc1)[C@H]1CN(C(=O)C2CCN(C(=O)C3(C)CC3)CC2)C[C@@H]1c1ccc(Cl)c(Cl)c1` (racemic) [Example 101, N-{(3RS,4SR)-4-(3,4-Dichloro-phenyl)-1-[1-(1-methyl-cyclopropanecarbonyl)-piperidine-4-carbonyl]-pyrrolidin-3-yl}-2-(4-fluoro-phenyl)-N-methyl-acetamide], the Ki worked out at 16.2 nM.

With `COc1ccc(C(=O)N(C)[C@@H]2CN(C(=O)c3ccc(C#N)cc3)C[C@H]2c2ccc(Cl)c(Cl)c2)cc1C(F)(F)F` (racemic) [Example 41, rac-N-[(3S,4R)-1-(4-Cyano-benzoyl)-4-(3,4-dichloro-phenyl)-pyrrolidin-3-yl]-4-methoxy-N-methyl-3-trifluoromethyl-benzamide], the Ki worked out at 1.45 nM.

On to `COc1ccc(C(=O)N(C)[C@@H]2CN(C(=O)C3CCN(C(=O)C4(C)CC4)CC3)C[C@H]2c2ccc(Cl)c(Cl)c2)cc1C(F)(F)F` [Example 107, N-{(3S,4R)-4-(3,4-Dichloro-phenyl)-1-[1-(1-methyl-cyclopropanecarbonyl)-piperidine-4-carbonyl]-pyrrolidin-3-yl}-4-methoxy-N-methyl-3-trifluoromethyl-benzamide], for which the Ki stood at 0.6 nM.

For `COc1ccc(C(=O)N(C)[C@@H]2CN(C(=O)N3CCN(S(C)(=O)=O)CC3)C[C@H]2c2ccc(Cl)c(Cl)c2)cc1Cl` (racemic) [Example 33, rac-3-Chloro-N-[(3S,4R)-4-(3,4-dichloro-phenyl)-1-(4-methanesulfonyl-piperazine-1-carbonyl)-pyrrolidin-3-yl]-4-methoxy-N-methyl-benzamide], the Ki came to 8.57 nM.

As for `COc1ccc(C(=O)N(C)[C@@H]2CN(C(=O)c3ccc(OC(F)(F)F)cc3)C[C@H]2c2ccc(Cl)c(Cl)c2)cc1C(F)(F)F` (racemic) [Example 53, rac-N-[(3S,4R)-4-(3,4-Dichloro-phenyl)-1-(4-trifluoromethoxy-benzoyl)-pyrrolidin-3-yl]-4-methoxy-N-methyl-3-trifluoromethyl-benzamide], the inhibition constant (Ki) was found to be 2.91 nM.

In the case of `CN(C(=O)c1ccc(F)c(C(F)(F)F)c1)[C@@H]1CN(C(=O)N2CCN(S(C)(=O)=O)CC2)C[C@H]1c1ccc(Cl)c(Cl)c1` (racemic) [Example 36, rac-N-[(3S,4R)-4-(3,4-Dichloro-phenyl)-1-(4-methanesulfonyl-piperazine-1-carbonyl)-pyrrolidin-3-yl]-4-fluoro-N-methyl-3-trifluoromethyl-benzamide], the Ki was determined as 3.59 nM.

With `CN(C(=O)Cc1ccc(F)c(F)c1)[C@H]1CN(C(=O)C2CCN(CC3CC3)CC2)C[C@@H]1c1ccc(Cl)c(Cl)c1` (racemic) [Example 150, N-[(3RS,4SR)-1-(1-Cyclopropylmethyl-piperidine-4-carbonyl)-4-(3,4-dichloro-phenyl)-pyrrolidin-3-yl]-2-(3,4-difluoro-phenyl)-N-methyl-acetamide], the Ki was determined as 19.8 nM.

As for `COc1ccc(C(=O)N(C)[C@@H]2CN(C(=O)c3cccc(S(C)(=O)=O)c3)C[C@H]2c2ccc(Cl)c(Cl)c2)cc1C(F)(F)F` (racemic) [Example 54, rac-N-[(3S,4R)-4-(3,4-Dichloro-phenyl)-1-(3-methanesulfonyl-benzoyl)-pyrrolidin-3-yl]-4-methoxy-N-methyl-3-trifluoromethyl-benzamide], the Ki amounted to 3.81 nM.

Turning to `CN(C(=O)CC1CCOCC1)[C@H]1CN(C(=O)C2CCN(C(=O)C3(C)CC3)CC2)C[C@@H]1c1ccc(Cl)c(Cl)c1` (racemic) [Example 124, N-{(3RS,4SR)-4-(3,4-Dichloro-phenyl)-1-[1-(1-methyl-cyclopropanecarbonyl)-piperidine-4-carbonyl]-pyrrolidin-3-yl}-N-methyl-2-(tetrahydro-pyran-4-yl)-acetamide], the Ki came to 13 nM.
